Measured values published in patent US6984729B1, “Oligonucleotides specific for hepatitis B virus” (priority 1995, dated 2006).
“Also recorded” adds a separate entry of the source.

What was measured:
[1] = test system: replicative intermediate (RI) HBV DNA in HepG2.2.15 cells; assay: Southern hybridization viral assay in HepG2.2.15 cells; type: cell-based, hepatitis B virus; conditions: titrated concentrations, FIGS. 11, 12
From the text: The activity of antisense oligonucleotides was also studied in a viral assay in HepG2.2.15 cells, which have been stably transfected with plasmids carrying whole HBV genomes (Sells et al. (1987) Proc. Nat. Acad. Sci. 84:1005–1009; Sureau et al. (1986) Cell 47:37–47). […] A more definitive test is Southern hybridization, which provides data concerning the character of the detected DNA in addition to quantitation. This assay has been described previously for the screening of anti-HBV compounds on HepG2.2.15 cells (Doong et al. (1991) Proc. Nat. Acad. Sci. (USA) 88:8495–8499). In view of the many potential sources of HBV DNA from transfected cells, this assay allows for a more meaningful interpretation of results than the other methods mentioned.
The cell line HepG2.2.15 (Sells et al. (1988) J. Virol. 62:2836–2844) was routinely cultured in RPMI.1640 medium (Life Technologies Ltd., Paisley, Scotland) supplemented with 10% fetal bovine serum (FBS), 100 U/ml penicillin, and 150 μg/ml streptomycin. Cultures were replaced after 10 passages with cells freshly cultured from a mycoplasma-free frozen stock. Cultures were maintained at 37° C. in a humidified atmosphere of 5% CO2 in air.
Cells were cultured in 6-well plates at 10^6 cells/well in 4 ml medium (RPMI.1640 as above but supplemented with 5% FBS) and maintained as above. […]

[2] = test system: internally 32P-labelled HBV precore-core RNA (epsilon region); assay: RNase H cleavage of HBV precore-core RNA with noncontiguous oligonucleotides targeted to the epsilon region; type: biochemical, hepatitis B virus
Protocol: To determine whether an oligonucleotide of the invention is capable of successfully hybridizing to its target, an RNase H assay was performed (Frank et al. (1993) Proc. Int. Conf. Nucleic Acid Med. Applns. 1:4.14(abstract)). This assay is useful when a region of at least four contiguous nucleotides of the oligonucleotide is DNA and the target is RNA. Hybridization of the DNA portion of the oligonucleotide to the RNA target is identified by cleavage at that site by RNase H.
Noncontiguous oligonucleotides targeted to the HBV epsilon region have also been prepared and tested. The epsilon region is characterized by an RNA stem-loop structure consisting primarily of double-stranded RNA with a single-stranded bulge and loop of 6 bases each (FIG. 3). […] The ability of RNase H to cleave an RNA in this manner inflicts greater damage on the RNA than normal antisense oligodeoxynucleotides, while allowing the targeting of a biologically important region that is otherwise difficult to target due to its double-stranded nature.
Based on this information, several oligodeoxynucleotide phosphorothioates were prepared to test the hypothesis that hybridization by mode B is preferred when spanning the base of an RNA stem. 20mer and 24mer noncontiguous oligonucleotides (Table 2) were prepared as well as the 10mers and 12mers corresponding to the “arms” of the noncontiguous sequences.
If a single oligodeoxynucleotide were able to bind across the base of epsilon to sequences on either side of the stem, RNase H might cleave both sites and effectively cut out the epsilon stem-loop from the RNA. […] The 12+12 noncontiguous phosphorothioates show the same ability to bind across the base of the RNA stem. […] Double cleavage of the transcript in the presence of the mixture of 12mer arms (HBV71+HBV72) was much slower (FIG. 6B).
When oligonucleotides hybridizing via mode B were lengthened to allow strand invasion of the RNA stem, disruption of the stem-loop structure occurred. Oligonucleotides HBV89 (SEQ ID NO:39), HBV90 (SEQ ID NO:40), and HBV91 (SEQ ID NO:41) bind across the base of epsilon via mode B and strand invade on either the 5 side (HBV89) or the 3′ side (HBV90 and HBV91) of the RNA stem. HBV89M is an extension of HBV64M with ten 2′-O-methyl RNA residues invading the RNA stem on the 5′-side. Addition of these strand invading nucleotides increased the cleavage efficiency from 23% to 32% at 100 nM oligonucleotide.
Uniformally ^32P-labelled RNA was prepared from 1 μg linearized plasmid using the Ambion MEGAscript In Vitro Transcription Kit (Ambion, Inc., Austin, Tex.) according to the manufacturers' instructions, using [α-^32p] CTP as the radioactive label. The RNA was treated with RNase-free DNase I (Ambion, Inc., Austin, Tex.), extracted with phenol:chloroform: isoamyl alcohol (25:24:1) and purified from nucleotides and nucleosides on a G-50 Sephadex spin column (Boehringer-Mannheim, Indianapolis, Ind., or Pharmacia, Uppsala, Sweden).
In 9 μl 1× RNase H buffer (40 mM Tris-HCl pH 7.4, 4 mM MgCl2, 1 mM DTT), 20–100 nM labelled RNA and 100 nM oligonucleotides were preincubated for 15 min at 37° C. 1 μl RNase H (1 U/μl) was added, and the reaction was incubated at 37° C. for 10 min. The reactions were quenched and analyzed as described above.
Quantitation of the cleavage products was performed using software supplied with the Phosphorimager (Molecular Dynamics, Sunnyvale, Calif., or Bio-Rad Laboratories, Hercules, Calif.). “Counts” were determined by drawing a box around the band of interest and subtracting the background determined with a box drawn nearby. Counts in a product band were compared to total counts in the lane above that band to determine % cleavage.

parent pGLori sequence = assay: Firefly luciferase reporter gene assay in HepG2 cells stably transfected with parent construct (control); type: cell-based
Protocol: Oligonucleotides targeted to the polymerase translation initiation region were also tested in mammalian cells using a firefly luciferase reporter gene assay. The 35 nucleotide region spanning the translation start site of the HBV ayw polymerase gene from nt 2294–2328 was cloned 5′ to, and in frame with, the entire open reading frame of the firefly luciferase gene in the plasmid pGLori, to produce the plasmid pGLpol (FIG. 10). Transcription of this pol-luciferase gene fusion was placed under the control of the cytomegalovirus early gene promoter. Expression of the pol-luciferase fusion in mammalian cells was quantified in a luminometer by addition of luciferin substrate and ATP cofactor to cell lysates. In all cellular antisense assays, a random sequence 20mer phosphorothioate oligonucleotide (random 20mer PS) was used as a negative control. […]
Stably transfected HepG2 cells were seeded into 96 well plates. […] Cells were washed twice with Dulbecco's phosphate-buffered saline (PBS) and lysed in 50 μl cell lysis buffer (Analytical Luminescence Laboratory, San Diego, Calif.). Luciferase activity was measured in 20 μl lysate using Analytical Luminescence Laboratory substrates in a MicroLumat LB 96 P luminometer (EG&G Berthold, Nashua, N.H.).

Substance: ACCCAAGGCACAGCTTGGAG (phosphorothioate, further chemistry not given here) [HBV6]
- inhibition of the formation of replicative intermediate (RI) HBV DNA [1]: significant inhibition

Substance: AGGCAGAGGTGATATAAGGGTCGA (chemistry not given here) [HBV67]
- total RNA cleavage by RNase H ([2]; 10+10 and 12+12 noncontiguous oligonucleotides versus mixtures of arms, FIGS. 5A, 6A): equal
- double cleavage (twice cleaved product) by RNase H on both sides of the epsilon stem ([2]; FIGS. 5B, 6B): efficiently activate RNase H cleavage on both sides of the stem after only 1.5 minutes; also recorded: slightly more cleavage than mode A (HBV79)
- inhibition of the formation of replicative intermediate (RI) HBV DNA [1]: Inhibition was also found

Substance: Luc +1–+20: 20mer phosphorothioate antisense oligonucleotide targeting the first 20 nucleotides of the firefly luciferase coding region, positive control, SEQ ID NO:50 (antisense ATGTTTTTGGCGTCTTCCAT; all phosphorothioate, sugars by position and methylation of C not given here)
- antisense activity on luciferase expression, parent pGLori (parent pGLori sequence): exhibited antisense activity
